Measurements reported in ChEMBL document CHEMBL5727761, “1-cyano-pyrrolidine compounds as USP30 inhibitors” (2020).

Biological target: T1, Ubiquitin carboxyl-terminal hydrolase 30 (Homo sapiens, UniProt Q70CQ3)
T1 sequence (Q70CQ3 whole entry): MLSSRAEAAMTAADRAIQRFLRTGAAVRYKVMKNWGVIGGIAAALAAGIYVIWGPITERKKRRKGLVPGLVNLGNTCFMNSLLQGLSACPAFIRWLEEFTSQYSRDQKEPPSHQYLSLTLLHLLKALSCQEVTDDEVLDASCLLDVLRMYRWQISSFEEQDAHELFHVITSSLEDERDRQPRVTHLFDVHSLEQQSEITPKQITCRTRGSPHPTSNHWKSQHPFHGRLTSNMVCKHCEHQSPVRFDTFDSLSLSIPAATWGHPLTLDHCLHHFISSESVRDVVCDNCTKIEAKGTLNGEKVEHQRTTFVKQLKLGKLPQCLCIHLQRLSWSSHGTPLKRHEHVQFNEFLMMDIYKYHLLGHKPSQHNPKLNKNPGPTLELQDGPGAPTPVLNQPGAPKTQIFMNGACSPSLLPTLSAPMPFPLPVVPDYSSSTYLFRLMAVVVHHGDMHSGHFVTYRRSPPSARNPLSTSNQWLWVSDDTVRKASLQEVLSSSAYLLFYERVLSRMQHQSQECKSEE
Test: Biochemical Fluorescence Intensity Kinetic Assay/Biochemical Fluorescence Intensity Assay: USP30 Biochemical Fluorescence Intensity Kinetic Assay.Reactions were performed in duplicate in black 384 well plates (small volume, Greiner 784076) in a final reaction volume of 21 μl. USP30 CD (Boston Biochem E-582 or 57-517, #64-0057-050 Ubiquigent) was diluted in reaction buffer (40 mM Tris, pH 7.5, 0.005% Tween 20, 0.5 mg/ml BSA, 5 mM beta-mercaptoethanol) to the equivalent of 0, 0.0005, 0.001, 0.005, and 0.01 μl/well. Buffer was optimised for optimal temperature, pH, reducing agent, salts, time of incubation, and detergent. Reactions were initiated by the addition of Ubiquitin-Rhodamine 110 (U-555, Boston Biochem) at a final concentration of 100 nM. Reactions were incubated at room temperature and read every 2 min for 120 min. Readings were performed on a Pherastar Plus (BMG Labtech). […] A typical 8-point dilution series would be 100, 30, 10, 3, 1, 0.3, 0.1, 0.03 μM final. Reactions were performed in duplicate in black 384 well plates (small volume, Greiner 784076) in a final reaction volume of 21 μl. Either 1 μl of 50% DMSO or diluted compound was added to the plate. USP30 was diluted in reaction buffer (40 mM Tris, pH 7.5, 0.005% Tween 20, 0.5 mg/ml BSA, 5 mM beta-mercaptoethanol) to the equivalent of 0.001 μl/well and 10 μl of diluted USP30 was added to the compound. […]

N#CN1CC[C@@H](NC(=O)c2ccc(N3CCOCC3)cc2)C1
IC50: in the range around 0.55 µM

N#CN1C[C@H]2CCN(C(=O)N3CCc4ccccc43)[C@H]2C1
IC50: in the range around 5.5 µM
